Reference: publication PMC3823594, “Conformational Changes Underlying Pore Dilation in the Cytoplasmic Domain of Mammalian Inward Rectifier K^+ Channels” (PLoS ONE, 2013)
Changes are numbered by the printed parent chain.

Experiments:
Kir3.2 E236N = molecular target: T1, Kir3.2 E236N (Mus musculus, UniProt P48542, E236N); assay: Two-electrode voltage clamp, ACh-dependent (m2R-dependent) K+ current activation; type: cell-based; conditions: Kir3.2 E236N with porcine m2R in Xenopus oocytes; −120 mV; Hill equation fit
T1 sequence (P48542 19-425 E236N): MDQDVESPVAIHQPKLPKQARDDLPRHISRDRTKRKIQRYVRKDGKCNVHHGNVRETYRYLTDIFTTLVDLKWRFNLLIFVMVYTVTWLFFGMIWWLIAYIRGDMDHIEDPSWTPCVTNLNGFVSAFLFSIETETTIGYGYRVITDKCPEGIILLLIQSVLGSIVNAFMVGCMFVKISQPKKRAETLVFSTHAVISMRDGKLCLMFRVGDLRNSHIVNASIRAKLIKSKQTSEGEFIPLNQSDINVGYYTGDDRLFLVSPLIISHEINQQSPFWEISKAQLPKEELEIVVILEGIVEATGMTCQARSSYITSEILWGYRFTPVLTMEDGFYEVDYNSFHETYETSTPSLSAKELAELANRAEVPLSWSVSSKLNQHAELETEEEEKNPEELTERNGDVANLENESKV
T1 sequence (P06199 1-466 partner): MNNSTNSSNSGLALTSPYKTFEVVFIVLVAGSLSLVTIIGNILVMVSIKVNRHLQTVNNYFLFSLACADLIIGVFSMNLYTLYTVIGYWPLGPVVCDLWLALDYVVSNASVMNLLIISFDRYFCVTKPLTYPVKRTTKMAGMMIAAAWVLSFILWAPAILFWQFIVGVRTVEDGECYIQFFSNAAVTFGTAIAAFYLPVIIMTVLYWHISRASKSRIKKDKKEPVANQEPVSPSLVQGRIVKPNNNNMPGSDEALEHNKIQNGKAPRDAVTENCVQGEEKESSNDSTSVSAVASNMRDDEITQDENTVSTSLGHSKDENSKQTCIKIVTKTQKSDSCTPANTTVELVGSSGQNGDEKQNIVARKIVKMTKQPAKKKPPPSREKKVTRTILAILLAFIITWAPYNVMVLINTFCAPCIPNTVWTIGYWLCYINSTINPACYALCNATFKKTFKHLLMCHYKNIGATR

Kir3.2 E236D = molecular target: T2, Kir3.2 E236D (Mus musculus, UniProt P48542, E236D); assay: as above; type: cell-based; conditions: Kir3.2 E236D with porcine m2R in Xenopus oocytes; −120 mV; Hill equation fit
T2 sequence (P48542 19-425 E236D): T1 sequence (P48542 19-425 E236N) with N218D
T2 sequence (P06199 1-466 partner): T1 sequence (P06199 1-466 partner)

SMILES: CC(=O)OCC[N+](C)(C)C [ACh, acetylcholine]
- Hill coefficient (Kir3.2 E236N): 0.82 ± 0.08
- Hill coefficient (Kir3.2 E236D): 0.74 ± 0.07
